Measured values as given in patent publication US12076421B2, “Assessment of coronary heart disease with carbon dioxide” (priority 2011, dated 2024).

Tests used:
[1] = test system: myocardial blood flow (MBF); assay: 13N-ammonia PET myocardial blood flow following pre-administration of caffeine; format: in vivo, canines; conditions: for MBF response relative to rest: following caffeine administration
Description: These studies were conducted by prospectively and independently controlling PaCO2 and combining it with ^13N-ammonia Positron Emission Tomography (PET) measurements, and the extent of effect on MBF due to hypercapnia was compared to adenosine.
The objectives of these studies were twofold: to investigate the effects of PaCO2 on MBF while minimizing contributions from factors that can unintentionally reduce or inaccurately report on sensitivity of PaCO2 on MBF; and to assess whether an independent, precise and rapid establishment of physiologically tolerable level of hypercapnia provides equivalent hyperemia as adenosine, a commonly used pharmacological stimulus for cardiac stress testing with and without pre-administration of caffeine. To address these aims, a clinically relevant animal model was used along with validated strategies for (i) precisely and rapidly establishing desired levels of PaCO2, while holding PaO2 constant; (ii) quantifying MBF in vivo; and (iii) image analysis to derive MBF values across the different coronary supply territories. […] To determine whether MBF response to PaCO2 overlaps the same mechanistic path as adenosine, we quantified MBF under hypercapnia and adenosine following caffeine administration. Studies were conducted as described in Yang, H-J et al., J. Nucl. Med. 58: 953-960 (2017), which is hereby incorporated by reference in its entirety.

[2] = test system: myocardial blood flow (MBF); assay: 13N-ammonia PET myocardial blood flow, canines without coronary stenosis; format: in vivo; conditions: for mean MBF: absence of stenosis, hypercapnia ~25 mmHg increase in PaCO2, standard dose adenosine; for Global MBF normalized by rate-pressure-product: intact canines, in ml/min/g per mmHg·bpm
Description: We investigated whether a physiologically tolerable hypercapnia stimulus ( 25-mmHg increase in PaCO2) can increase myocardial blood flow (MBF) to that observed with adenosine in three groups of canines: (i) without coronary stenosis; (ii) subjected to non-flow limiting coronary stenosis; and (iii) following pre-administration of caffeine. These studies were conducted by prospectively and independently controlling PaCO2 and combining it with ^[…]-ammonia Positron Emission Tomography (PET) measurements, and the extent of effect on MBF due to hypercapnia was compared to adenosine. The objectives of these studies were twofold: to investigate the effects of PaCO2 on MBF while minimizing contributions from factors that can unintentionally reduce or inaccurately report on sensitivity of PaCO2 on MBF; and to assess whether an independent, precise and rapid establishment of physiologically tolerable level of hypercapnia provides equivalent hyperemia as adenosine, a commonly used pharmacological stimulus for cardiac stress testing with and without pre-administration of caffeine. To address these aims, a clinically relevant animal model was used along with validated strategies for (i) precisely and rapidly establishing desired levels of PaCO2, while holding PaO2 constant; (ii) quantifying MBF in vivo; and (iii) image analysis to derive MBF values across the different coronary supply territories. We compared our findings to the effects of standard dose of adenosine in the same animal models with and without coronary stenosis to quantify MBF and flow deficit regions under peak tolerable PaCO2. To determine whether MBF response to PaCO2 overlaps the same mechanistic path as adenosine, we quantified MBF under hypercapnia and adenosine following caffeine administration. Studies were conducted as described in Yang, H-J et al., J. Nucl. Med. 58: 953-960 (2017), which is hereby incorporated by reference in its entirety. […] FIG. 13 is a table summarizing the mean arterial CO2, O2 and hemodynamic variables of interest in Group Intact. FIG. 14A-14D show the mean global MBF and MPR response to hypercapnia in relation to adenosine. Global MBF under adenosine and hypercapnia were both higher than at rest (p<0.05, for both) and were not different from one another (p=0.33). […] Similar observations were evident for regional MBF and MPR with hypercapnia and adenosine. The observed range of MBF at rest (0.44 to 1.93 ml/min/g) and adenosine (0.47 to 5.10 ml/min/g) and range of MPR under adenosine (1.20 to 4.57) across the animals is consistent with previous reports (Kuhle, W. G. et al., Circulation 86:1004-1017 (1992)).

[3] = test system: myocardium; assay: Myocardial BOLD response to PaCO2 in human volunteers; format: in vivo, humans; conditions: early human data, pCO2 change of 10 mmHg, from 35 mmHg to 45 mmHg
[4] = test system: myocardium; assay: Myocardial BOLD MRI response to PaCO2 modulation while PaO2 is held constant; format: in vivo, canines
Description: In Examples 1-6, all imaging studies were performed in instrumented animals with a Doppler flow probe attached to the LAD coronary arteries for measurement of flow changes in response to CO2 and clinical dose of adenosine. In these studies, CO2 and O2 delivery were tightly controlled using […]. […] At each CO2 level, free-breathing and cardiac gated blood-oxygen-level-dependent (BOLD) acquisitions were prescribed at mid diastole and Doppler flow velocities were measured. Similar acquisitions were also performed with block sequences of CO2 levels; that is, CO2 levels were alternated between 40 and 50 mmHg and BOLD images (and corresponding Doppler flow velocities) were acquired at each CO2 level to assess the reproducibility of the signal changes associated with different CO2 levels. Each delivery of CO2 using […] was made in conjunction with arterial blood draw to determine the arterial blood CO2 levels. […] We assessed the difference between myocardial blood-oxygen-level dependent (BOLD) response under hypercarbia and normocarbia conditions in canines. The BOLD signal intensity is proportional to oxygen saturation. […] The lower panel depicts the difference as obtained by subtracting the signal under rest from that under stress. […] We further assessed the myocardial BOLD response to stepwise CO2 increase (ramp-up) in canines. […] To further evaluate vascular reactivity and coronary response to CO2, we measured the myocardial BOLD signal in response to block increases of CO2 in canines. Specifically, the myocardial BOLD signal was measured as the amount of CO2 administered to the canine subjects alternated between 40 mmHg CO2 and 50 mmHg CO2. […] The myocardium is supplied with blood by the left anterior descending (LAD) artery, the right coronary artery (RCA) and the left circumflex (LCX) artery. We measured the blood flow through each of these arteries in response to increasing CO2 supply. As shown in FIG. 6 and summarized in FIG. 7, in each of the three LAD, RCA and LCX arteries, there is a direct correlation between the amount of CO2 administered and the signal intensity; as the amount of administered CO2 increases, the signal intensity, signaling the blood flow, in each of the three arteries increases. Further, as shown in FIG. 6 and summarized in FIG. 8, there was no response to CO2 modulation in control territories such as blood, skeletal muscle or air. […] Vascular reactivity of three canines that were administered with adenosine was compared with the vascular reactivity of canines that were administered with CO2. As shown in FIGS. 10A and 10B, the hyperemic adenosine stress BOLD response was approximately 12% compared with 16% in response to CO2.

[5] = test system: left anterior descending (LAD) artery; assay: Doppler flow in the left anterior descending artery in response to PaCO2 modulation; format: in vivo, canines; conditions: increasing amount of administered CO2, PaO2 held constant
Description: (§1) In Examples 1-6, all imaging studies were performed in instrumented animals with a Doppler flow probe attached to the LAD coronary arteries for measurement of flow changes in response to CO2 and clinical dose of adenosine. In these studies, CO2 and O2 delivery were tightly controlled using Respiract. CO2 values were incremented in steps of 10 mmHg starting from 30 mmHg to 60 mmHg and were ramped down in decrements of 10 mmHg. At each CO2 level, free-breathing and cardiac gated blood-oxygen-level-dependent (BOLD) acquisitions were prescribed at mid diastole and Doppler flow velocities were measured. Similar acquisitions were also performed with block sequences of CO2 levels; that is, CO2 levels were alternated between 40 and 50 mmHg and BOLD images (and corresponding Doppler flow velocities) were acquired at each CO2 level to assess the reproducibility of the signal changes associated with different CO2 levels. Each delivery of CO2 using Respiract was made in conjunction with arterial blood draw to determine the arterial blood CO2 levels.
The Doppler flow was measured in the left anterior descending (LAD) artery. […] The relative change in coronary flow velocity was directly proportional to the amount of CO2 administered.

[6] = test system: myocardial blood flow (MBF); assay: 13N-ammonia PET myocardial blood flow and perfusion defect, canines with LAD coronary stenosis; format: in vivo; conditions: for regional MBF versus rest: all territories (LAD, LCx, RCA); for regional MBF versus rest / MBF increase in the LAD territory: p<0.05; for MBF increase in the LAD territory: compared with LCx and RCA territories
Description: We investigated whether a physiologically tolerable hypercapnia stimulus ( 25-mmHg increase in PaCO2) can increase myocardial blood flow (MBF) to that observed with adenosine in three groups of canines: (i) without coronary stenosis; (ii) subjected to non-flow limiting coronary stenosis; and (iii) following pre-administration of caffeine. These studies were conducted by prospectively and independently controlling PaCO2 and combining it with ^[…]-ammonia Positron Emission Tomography (PET) measurements, and the extent of effect on MBF due to hypercapnia was compared to adenosine. The objectives of these studies were twofold: to investigate the effects of PaCO2 on MBF while minimizing contributions from factors that can unintentionally reduce or inaccurately report on sensitivity of PaCO2 on MBF; and to assess whether an independent, precise and rapid establishment of physiologically tolerable level of hypercapnia provides equivalent hyperemia as adenosine, a commonly used pharmacological stimulus for cardiac stress testing with and without pre-administration of caffeine. To address these aims, a clinically relevant animal model was used along with validated strategies for (i) precisely and rapidly establishing desired levels of PaCO2, while holding PaO2 constant; (ii) quantifying MBF in vivo; and (iii) image analysis to derive MBF values across the different coronary supply territories. We compared our findings to the effects of standard dose of adenosine in the same animal models with and without coronary stenosis to quantify MBF and flow deficit regions under peak tolerable PaCO2. To determine whether MBF response to PaCO2 overlaps the same mechanistic path as adenosine, we quantified MBF under hypercapnia and adenosine following caffeine administration. Studies were conducted as described in Yang, H-J et al., J. Nucl. Med. 58: 953-960 (2017), which is hereby incorporated by reference in its entirety. […] FIGS. 16A, 16B, 16E show the mean regional MBF in LAD, left circumflex artery (LCx) and right coronary artery (RCA) supply territories at rest, hypercapnia and adenosine. MBF values were not different at rest among the different supply territories (p>0.4, for all). […] MBF under hypercapnia was not different between the LCx and RCA territories (hypercapnia: p=0.21); the same was true under adenosine (p=0.50). For each myocardial supply territory, MBF under hypercapnia and adenosine were not different (p=1.00, for all). […] MPR under hypercapnia was not different between the LCx and RCA territories (hypercapnia: p=0.59); the same was true under adenosine (p=0.34). For each myocardial supply territory, MPR under hypercapnia and adenosine were not different (p>0.5 for all). […] Perfusion defect volumes and visual scoring under hypercapnia vs. adenosine were determined. TRP obtained under hypercapnia and adenosine were not different: 25±19% (hypercapnia) vs. 27±15% (adenosine); p=0.12. Direct comparison of TRP within the same subjects under hypercapnia and adenosine were highly correlated (R=0.85, p<0.05) and were in good agreement (bias=2%). Similar trends were observed from visual scoring analysis. No difference between the scores from hypercapnia and adenosine was observed from a paired sampled Wilcoxon signed rank test (p=0.26). Visual scores between hypercapnia and adenosine were concordant with most segments falling onto the diagonal of the scoring matrix (FIG. 18).

[7] = test system: LAD coronary arteries; assay: Epicardial flow enhancement, Carbogen against clinical dose of adenosine; format: in vivo, dogs; conditions: Carbogen with ETCO2 reaching 48-50 mm Hg
Description: as §1
In detail, the color images (lower panel of FIG. 1) are color-coded to the signal intensities of grayscale images (above). The darker colors (blue/black) represent territories of baseline myocardial oxygenation and the brighter regions represent those regions that are hyperemic. […]

With O=C=O [CO2, carbon dioxide] the “MBF response relative to rest” value [1] was “able to induce myocardial hyperemia”, the “mean MBF” value [2] was 2.1 ± 0.9 mL/min/g and the “Global MBF normalized by rate-pressure-product” value [2] was 1.26×10^−5±0.56×10^−5. For the same compound, the “hyperemic response (BOLD)” value [3] was “approximately 11%”, the BOLD signal intensity ([4]; block increase from 40 mmHg CO2 to 50 mmHg CO2, canines) was “increase in BOLD signal intensity” and the BOLD signal intensity ([4]; hypercarbia (60 mm Hg) vs normocarbia (30 mmHg), canines) was “increase in BOLD signal intensity”. The “signal intensity, signaling the blood flow, in LAD, RCA and LCX arteries” value ([4]; increasing amount of administered CO2) was “increases”, the BOLD signal intensity ([4]; stepwise CO2 increase (ramp-up), canines) was “increases” and the “Doppler flow in LAD artery” value [5] was “increases”. The “total reduction in perfusion volume (TRP, % LV) between stress and rest” value [6] was 25±19%, the “regional MBF versus rest” value [6] was “increased” and the “MBF increase in the LAD territory” value [6] was “significantly lower than in the LCx and RCA territories”.
In the case of Nc1ncnc2c1ncn2[C@@H]1O[C@H](CO)[C@@H](O)[C@H]1O [adenosine, reference compound], the “MBF response relative to rest” value [1] is reported as “no change in MBF”, the “global MPR” value ([1]; under caffeine, p<0.05) is reported as “lower than under hypercapnia” and the “mean MBF” value [2] is reported as 2.2 ± 1.1 mL/min/g. The “Global MBF normalized by rate-pressure-product” value [2] was 1.16×10^−5±0.80×10^−5, the “hyperemic BOLD response” value ([4]; canines, mean, adenosine stress in three canines) was “approximately 12%” and the “epicardial flow enhancement response” value [7] was “about 20%”. The “total reduction in perfusion volume (TRP, % LV) between stress and rest” value [6] was 27±15%, the “regional MBF versus rest” value [6] was “increased” and the “MBF increase in the LAD territory” value [6] was “significantly lower than in the LCx and RCA territories”.
For Cn1c(=O)c2c(ncn2C)n(C)c1=O [caffeine], the “resting MBF normalized by rate-pressure-product” value ([1]; post-administration of caffeine (1.5×10^−5 pre-administration, p=0.03)) was 1.0×10^−5.
